# What was measured:
# Assay in all cases: Test E pre-/postemergence herbicide test
# dallisgrass = type: in vivo, Paspalum dilatatum
# Description: (§1) Seeds of plant species selected from bipinnate beggarticks (Bidens bipinnata L.), hairy beggarticks (Bidens radiata Thuill.), bermudagrass (Cynodon dactylon (L.) Pers.), Surinam grass (Urochloa decumbens (Staph) R. D. Webster, previously named Brachiaria decumbens Stapf), large crabgrass (Digitaria sanguinalis (L.) Scop.), green foxtail (Setaria viridis (L.) P. Beauv.), goosegrass (Eleusine indica (L.) Gaertn.), johnsongrass (Sorghum halepense (L.) Pers.), kochia (Kochia scoparia (L.) Schrad.), pitted morningglory (Ipomoea lacunosa L.), purple nutsedge (Cyperus rotundus L.), common ragweed (Ambrosia elatior L.), mustard (Brassica nigra (L.) W. D. J. Koch), guineagrass (Panicum maximum Jacq.), dallisgrass (Paspalum dilatatum Poir.), barnyardgrass (Echinochloa crus-galli (L). P. Beauv.), southern sandbur (Cenchrus echinatus L.), common sowthistle (Sonchus oleraceous L.), prickly sida (Sida spinosa L.), Italian ryegrass (Lolium multiflorum Lam.), common purslane (Portulaca oleracea L.), broadleaf signalgrass (Brachiaria platyphylla (Griseb.) Nash), common groundsel (Senecio vulgaris L.), common chickweed (Stellaria media (L.) Vill/Cyr.), tropical spiderwort (Commelina benghalensis L.), annual bluegrass (Poa annua L.), downy bromegrass (Bromus tectorum L.), itchgrass (Rottboellia cochinchinensis (L.) L.f.), quackgrass (Elytrigia repens (L.) Nevski), Canada horseweed (Erigeron Canadensis L.), field bindweed (Convolvulus arvensis L.), spotted spurge (Euphorbia maculata L.), common mallow (Malva sylvestris (=s silvestris) L.), and Russian thistle (Salsola kali L. ssp. Ruthenica (Iljin) Soo) were planted and treated preemergence with test chemicals formulated in a non-phytotoxic solvent mixture which included a surfactant.
# (§2) At the same time, plants selected from these weed species were treated with postemergence applications of some of the test chemicals formulated in the same manner. Plants ranged in height from 2 to 18 cm (1- to 4-leaf stage) for postemergence treatments. Treated plants and controls were maintained in a greenhouse for 12 to 14 days, after which time all species were compared to controls and visually evaluated. Plant response ratings, summarized in Table E, are based on a scale of 0 to 100 where 0 is no effect and 100 is complete control. A dash (-) response means no test result.
# southern sandbur = type: in vivo, Cenchrus echinatus
# Description: as §1, §2
# common chickweed = type: in vivo, Stellaria media
# Description: as §1, §2
# johnsongrass = type: in vivo, Sorghum halepense
# Description: as §1, §2
# common sowthistle = type: in vivo, Sonchus oleraceous
# Description: as §1, §2
# goosegrass = type: in vivo, Eleusine indica
# Description: as §1, §2
# pitted morningglory = type: in vivo, Ipomoea lacunosa
# Description: as §1, §2
# barnyardgrass = type: in vivo, Echinochloa crus-galli
# Description: as §1, §2
# Italian ryegrass = type: in vivo, Lolium multiflorum
# Description: as §1, §2
# common groundsel = type: in vivo, Senecio vulgaris
# Description: as §1, §2
# common purslane = type: in vivo, Portulaca oleracea
# Description: as §1, §2
# downy bromegrass = type: in vivo, Bromus tectorum
# Description: as §1, §2
# itchgrass = type: in vivo, Rottboellia cochinchinensis
# Description: as §1, §2
# purple nutsedge = type: in vivo, Cyperus rotundus
# Description: as §1, §2
# annual bluegrass = type: in vivo, Poa annua
# Description: as §1, §2
# common mallow = type: in vivo, Malva sylvestris
# Description: as §1, §2
# [1] = Postemergence, 500 g ai/ha, scale 0 to 100
# [2] = Postemergence, 250 g ai/ha, scale 0 to 100
# [3] = Preemergence, 62 g ai/ha, scale 0 to 100
# [4] = Preemergence, 125 g ai/ha, scale 0 (no effect) to 100 (complete control)
# [5] = Preemergence, 250 g ai/ha, scale 0 (no effect) to 100 (complete control)
# [6] = Preemergence, 500 g ai/ha, scale 0 (no effect) to 100 (complete control)
# [7] = postemergence, 125 g ai/ha, scale 0 to 100
# [8] = postemergence, 62 g ai/ha, scale 0 to 100
structure (smiles),measurement,setting,value
"CCn1nc(C(C)(C)C)cc1C(=O)Nc1cc(C(=O)N(C)C)ccc1F [Compound 6, N-[5-[(dimethylamino)carbonyl]-2-fluorophenyl]-3-(1,1-dimethylethyl)-1-ethyl-1H-pyrazole-5-carboxamide]","Plant response rating, Dallisgrass",dallisgrass; [1],90
same,"Plant response rating, Dallisgrass",dallisgrass; [2],80
same,"Plant response rating, Dallisgrass",dallisgrass; [3],90
same,"Plant response rating, Dallisgrass",dallisgrass; [4],95
same,"Plant response rating, Dallisgrass",dallisgrass; [5],95
same,"Plant response rating, Dallisgrass",dallisgrass; [6],100
same,"Plant response rating, Dallisgrass",dallisgrass; [7],75
same,"Plant response rating, Dallisgrass",dallisgrass; [8],60
same,"Plant response rating, Sandbur",southern sandbur; [1],100
same,"Plant response rating, Sandbur",southern sandbur; [2],100
same,"Plant response rating, Sandbur",southern sandbur; [3],85
same,"Plant response rating, Sandbur",southern sandbur; [4],100
same,"Plant response rating, Sandbur",southern sandbur; [6],100
same,"Plant response rating, Sandbur",southern sandbur; [7],95
same,"Plant response rating, Sandbur",southern sandbur; [8],85
same,"Plant response rating, Chickweed",common chickweed; [1],100
same,"Plant response rating, Chickweed",common chickweed; [2],100
same,"Plant response rating, Chickweed",common chickweed; [3],90
same,"Plant response rating, Chickweed",common chickweed; [4],95
same,"Plant response rating, Chickweed",common chickweed; [5],95
same,"Plant response rating, Chickweed",common chickweed; [6],100
same,"Plant response rating, Chickweed",common chickweed; [7],100
same,"Plant response rating, Chickweed",common chickweed; [8],100
same,"Plant response rating, Johnsongrass",johnsongrass; [1],98
same,"Plant response rating, Johnsongrass",johnsongrass; [2],98
same,"Plant response rating, Johnsongrass",johnsongrass; [3],90
same,"Plant response rating, Johnsongrass",johnsongrass; [4],90
same,"Plant response rating, Johnsongrass",johnsongrass; [5],90
same,"Plant response rating, Johnsongrass",johnsongrass; [6],100
same,"Plant response rating, Johnsongrass",johnsongrass; [7],95
same,"Plant response rating, Johnsongrass",johnsongrass; [8],90
same,"Plant response rating, Sowthistle",common sowthistle; [1],100
same,"Plant response rating, Sowthistle",common sowthistle; [2],100
same,"Plant response rating, Sowthistle",common sowthistle; [3],95
same,"Plant response rating, Sowthistle",common sowthistle; [4],95
same,"Plant response rating, Sowthistle",common sowthistle; [5],100
same,"Plant response rating, Sowthistle",common sowthistle; [6],100
same,"Plant response rating, Sowthistle",common sowthistle; [7],95
same,"Plant response rating, Sowthistle",common sowthistle; [8],75
same,"Plant response rating, Goosegrass",goosegrass; [1],98
same,"Plant response rating, Goosegrass",goosegrass; [2],98
same,"Plant response rating, Goosegrass",goosegrass; [3],85
same,"Plant response rating, Goosegrass",goosegrass; [4],95
same,"Plant response rating, Goosegrass",goosegrass; [6],100
same,"Plant response rating, Goosegrass",goosegrass; [7],98
same,"Plant response rating, Goosegrass",goosegrass; [8],90
same,"Plant response rating, Morningglory",pitted morningglory; [1],80
same,"Plant response rating, Morningglory",pitted morningglory; [2],60
same,"Plant response rating, Morningglory",pitted morningglory; [3],20
same,"Plant response rating, Morningglory",pitted morningglory; [4],70
same,"Plant response rating, Morningglory",pitted morningglory; [6],100
same,"Plant response rating, Morningglory",pitted morningglory; [7],10
same,"Plant response rating, Morningglory",pitted morningglory; [8],0
same,"Plant response rating, Barnyardgrass",barnyardgrass; [1],98
same,"Plant response rating, Barnyardgrass",barnyardgrass; [2],95
same,"Plant response rating, Barnyardgrass",barnyardgrass; [3],90
same,"Plant response rating, Barnyardgrass",barnyardgrass; [4],95
same,"Plant response rating, Barnyardgrass",barnyardgrass; [5],95
same,"Plant response rating, Barnyardgrass",barnyardgrass; [6],100
same,"Plant response rating, Barnyardgrass",barnyardgrass; [7],90
same,"Plant response rating, Barnyardgrass",barnyardgrass; [8],80
same,"Plant response rating, Ryegrass, Italian",Italian ryegrass; [1],98
same,"Plant response rating, Ryegrass, Italian",Italian ryegrass; [2],98
same,"Plant response rating, Ryegrass, Italian",Italian ryegrass; [3],90
same,"Plant response rating, Ryegrass, Italian",Italian ryegrass; [4],95
same,"Plant response rating, Ryegrass, Italian",Italian ryegrass; [6],100
same,"Plant response rating, Ryegrass, Italian",Italian ryegrass; [7],95
same,"Plant response rating, Ryegrass, Italian",Italian ryegrass; [8],80
same,"Plant response rating, Groundsel",common groundsel; [1],100
same,"Plant response rating, Groundsel",common groundsel; [2],100
same,"Plant response rating, Groundsel",common groundsel; [3],100
same,"Plant response rating, Groundsel",common groundsel; [4],100
same,"Plant response rating, Groundsel",common groundsel; [6],100
same,"Plant response rating, Groundsel",common groundsel; [7],95
same,"Plant response rating, Groundsel",common groundsel; [8],20
same,"Plant response rating, Purslane",common purslane; [1],100
same,"Plant response rating, Purslane",common purslane; [2],100
same,"Plant response rating, Purslane",common purslane; [3],100
same,"Plant response rating, Purslane",common purslane; [4],100
same,"Plant response rating, Purslane",common purslane; [5],100
same,"Plant response rating, Purslane",common purslane; [6],100
same,"Plant response rating, Purslane",common purslane; [7],90
same,"Plant response rating, Purslane",common purslane; [8],75
same,"Plant response rating, Bromegrass, Downy",downy bromegrass; [1],100
same,"Plant response rating, Bromegrass, Downy",downy bromegrass; [2],100
same,"Plant response rating, Bromegrass, Downy",downy bromegrass; [3],90
same,"Plant response rating, Bromegrass, Downy",downy bromegrass; [4],95
same,"Plant response rating, Bromegrass, Downy",downy bromegrass; [5],95
same,"Plant response rating, Bromegrass, Downy",downy bromegrass; [6],100
same,"Plant response rating, Bromegrass, Downy",downy bromegrass; [7],98
same,"Plant response rating, Bromegrass, Downy",downy bromegrass; [8],95
same,"Plant response rating, Itchgrass",itchgrass; [1],95
same,"Plant response rating, Itchgrass",itchgrass; [2],95
same,"Plant response rating, Itchgrass",itchgrass; [3],90
same,"Plant response rating, Itchgrass",itchgrass; [4],95
same,"Plant response rating, Itchgrass",itchgrass; [6],95
same,"Plant response rating, Itchgrass",itchgrass; [7],90
same,"Plant response rating, Itchgrass",itchgrass; [8],90
same,"Plant response rating, Nutsedge, Purple",purple nutsedge; [3],60
same,"Plant response rating, Nutsedge, Purple",purple nutsedge; [4],100
same,"Plant response rating, Nutsedge, Purple",purple nutsedge; [5],100
same,"Plant response rating, Nutsedge, Purple",purple nutsedge; [6],100
same,"Plant response rating, Nutsedge, Purple",purple nutsedge; [7],95
same,"Plant response rating, Nutsedge, Purple",purple nutsedge; [8],75
same,"Plant response rating, Bluegrass",annual bluegrass; [1],98
same,"Plant response rating, Bluegrass",annual bluegrass; [2],98
same,"Plant response rating, Bluegrass",annual bluegrass; [3],100
same,"Plant response rating, Bluegrass",annual bluegrass; [4],100
same,"Plant response rating, Bluegrass",annual bluegrass; [6],100
same,"Plant response rating, Bluegrass",annual bluegrass; [7],98
same,"Plant response rating, Bluegrass",annual bluegrass; [8],98
same,"Plant response rating, Mallow",common mallow; [1],100
same,"Plant response rating, Mallow",common mallow; [2],100
same,"Plant response rating, Mallow",common mallow; [3],70
same,"Plant response rating, Mallow",common mallow; [4],100
same,"Plant response rating, Mallow",common mallow; [6],100
same,"Plant response rating, Mallow",common mallow; [7],95
same,"Plant response rating, Mallow",common mallow; [8],65

# Reference: patent US20060069132A1, “Azolecarboxamide herbicides” (priority 2004, published 2006)
